From US20040176431A1, “Antiproliferative 2-(sulfo-phenyl)-aminothiazole derivatives and pharmaceutical compositions, and methods for their use” (Pfizer, Inc., priority 2003, published 2004)

Target: T1, CDK4/cyclin D3 (Homo sapiens, UniProt P11802)
T1 construct: made in house; host or cells: insect cells (baculovirus co-infection)
Assay: Inhibition of CDK4/Cyclin D retinoblastoma kinase activity;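 on % Inhib CDK4/D @ 1 μM: relative to DMSO control wells without compound minus no-enzyme background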
Type: biochemical
Conditions: for inhibition at 0.1 µM: test compound at 0.1 μM, read-out: % Inhib CDK4/D @ 0.1 μM; for inhibition at 1 µM: test compound at 1 μM (head line shifted: 'mM' printed beside 'Structure'), read-out: % Inhib CDK4/D @ 1 μM; for inhibition at 0.03 µM: test compound at 0.03 (unit cell empty, head line shifted; μM), read-out: % Inhib CDK4/D @ 0.03
Outline: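 Human CDK4 with truncated cyclin D3 (1-264) from baculovirus-infected insect cells, 5 nM, phosphorylating His-tagged Rb fragment (386-928) with 25 μM [32P/33P]ATP in pH 7.4 HEPES/MgCl2, 2% DMSO, 30° C., 20 min (60 min for tight binders). Filter capture, phosphorimager; apparent Ki from competitive or tight-binding competitive fits.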

T1 sequence (P11802 whole entry): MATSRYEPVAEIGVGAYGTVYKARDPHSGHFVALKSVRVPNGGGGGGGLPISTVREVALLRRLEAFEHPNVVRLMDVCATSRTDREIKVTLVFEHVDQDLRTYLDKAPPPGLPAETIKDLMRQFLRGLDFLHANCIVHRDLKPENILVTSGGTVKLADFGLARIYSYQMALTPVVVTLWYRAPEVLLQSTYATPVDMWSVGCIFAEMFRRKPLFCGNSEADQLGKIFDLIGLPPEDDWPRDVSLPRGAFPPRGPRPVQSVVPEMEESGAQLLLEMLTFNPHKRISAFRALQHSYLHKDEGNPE
T1 sequence (P30281 1-264 partner limits assumed): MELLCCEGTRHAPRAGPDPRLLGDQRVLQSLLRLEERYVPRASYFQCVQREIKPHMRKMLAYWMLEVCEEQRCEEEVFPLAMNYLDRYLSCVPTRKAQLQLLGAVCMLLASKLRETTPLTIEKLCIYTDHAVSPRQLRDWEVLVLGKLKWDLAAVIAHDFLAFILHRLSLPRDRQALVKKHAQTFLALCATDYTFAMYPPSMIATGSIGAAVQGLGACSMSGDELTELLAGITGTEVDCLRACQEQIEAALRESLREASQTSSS

Row | Compound | inhibition at 0.1 µM | inhibition at 1 µM | inhibition at 0.03 µM
1 | COC(=O)/C=C/C[S+]([O-])c1cccc(Nc2nc(N)c(C(=O)c3c(Cl)cccc3Cl)s2)c1 (stereo not drawn) [DD(124)] | 34% | 38.8% | 2.1%
2 | Nc1nc(Nc2cccc([S+]([O-])CCCO)c2)sc1C(=O)c1c(Cl)cccc1Cl (stereo not drawn) [DD(125)] | 55% | 61.5% | 15%
3 | C=CCC[S+]([O-])c1cccc(Nc2nc(N)c(C(=O)c3c(Cl)cccc3Cl)s2)c1 (stereo not drawn) [DD(126)] | 28% | 43.1% | 7.5%
4 | Nc1nc(Nc2cccc([S+]([O-])CCN3CCCC3)c2)sc1C(=O)c1c(Cl)cccc1Cl (stereo not drawn) [DD(127)] | 34% | 49.6% | -4.3%
5 | Nc1nc(Nc2cccc([S+]([O-])Cc3ncon3)c2)sc1C(=O)c1c(Cl)cccc1Cl (stereo not drawn) [DD(128)] | 54% | 49.9% | 12%
6 | Nc1nc(Nc2cccc([S+]([O-])CC3CNC(=O)O3)c2)sc1C(=O)c1c(Cl)cccc1Cl (stereo not drawn) [DD(129)] | 33% | 33.3% | 19%
7 | CN(C)CCC[S+]([O-])c1cccc(Nc2nc(N)c(C(=O)c3c(Cl)cccc3Cl)s2)c1 (stereo not drawn) [DD(130)] | 41% | 56% | 12%
8 | Nc1nc(Nc2cccc([S+]([O-])CCN3CCCCC3)c2)sc1C(=O)c1c(Cl)cccc1Cl (stereo not drawn) [DD(131)] | 32% | 57% | 13%
9 | Nc1nc(Nc2cccc([S+]([O-])CC3CO3)c2)sc1C(=O)c1c(Cl)cccc1Cl (stereo not drawn) [DD(132)] | 64% | 62% | 44%
10 | CC(C)CC[S+]([O-])c1cccc(Nc2nc(N)c(C(=O)c3c(Cl)cccc3Cl)s2)c1 (stereo not drawn) [DD(133)] | 28% | 24.3% | 14%
11 | COCC[S+]([O-])c1cccc(Nc2nc(N)c(C(=O)c3c(Cl)cccc3Cl)s2)c1 (stereo not drawn) [DD(134)] | 48% | 49.9% | 8.4%
12 | Nc1nc(Nc2cccc([S+]([O-])CC(=O)Nc3ccccc3)c2)sc1C(=O)c1c(Cl)cccc1Cl (stereo not drawn) [DD(135)] | 42% | 51.9% | 16%
13 | Nc1nc(Nc2cccc([S+]([O-])CC3CC3)c2)sc1C(=O)c1c(Cl)cccc1Cl (stereo not drawn) [DD(136)] | 27% | 44.9% | 14%
14 | COc1cccc(C[S+]([O-])c2cccc(Nc3nc(N)c(C(=O)c4c(Cl)cccc4Cl)s3)c2)c1 (stereo not drawn) [DD(137)] | 22% | 36.7% | -1.7%
15 | Nc1nc(Nc2cccc([S+]([O-])CC3CCCO3)c2)sc1C(=O)c1c(Cl)cccc1Cl (stereo not drawn) [DD(138)] | 34% | 63.8% | 2.9%
16 | CN1CCCC1CC[S+]([O-])c1cccc(Nc2nc(N)c(C(=O)c3c(Cl)cccc3Cl)s2)c1 (stereo not drawn) [DD(139)] | 53% | 77.6% | 17%
17 | CC1(C[S+]([O-])c2cccc(Nc3nc(N)c(C(=O)c4c(Cl)cccc4Cl)s3)c2)CO1 (stereo not drawn) [DD(140)] | 41% | 68% | 25%
18 | NC(=O)C[S+]([O-])c1cccc(Nc2nc(N)c(C(=O)c3c(Cl)cccc3Cl)s2)c1 (stereo not drawn) [DD(141)] | 71% | 64.5% | 36%
19 | CCOC(=O)CC[S+]([O-])c1cccc(Nc2nc(N)c(C(=O)c3c(Cl)cccc3Cl)s2)c1 (stereo not drawn) [DD(142)] | 36% | 39.3% | -2.6%

Row | Compound | inhibition at 0.1 µM | inhibition at 1 µM | inhibition at 0.03 µM
20 | CC(C)OC(=O)C[S+]([O-])c1cccc(Nc2nc(N)c(C(=O)c3c(Cl)cccc3Cl)s2)c1 (stereo not drawn) [DD(143)] | 24% | 36.7% | 15%
21 | CC(C)=CC[S+]([O-])c1cccc(Nc2nc(N)c(C(=O)c3c(Cl)cccc3Cl)s2)c1 (stereo not drawn) [DD(144)] | 12% | 27.7% | -66%
22 | CCC[S+]([O-])c1cccc(Nc2nc(N)c(C(=O)c3c(Cl)cccc3Cl)s2)c1 (stereo not drawn) [DD(145)] | 32% | 42.3% | 4.2%
23 | COC(=O)C[S+]([O-])c1cccc(Nc2nc(N)c(C(=O)c3c(Cl)cccc3Cl)s2)c1 (stereo not drawn) [DD(146)] | 53% | 47.6% | 15%
24 | CN1CCCC(C[S+]([O-])c2cccc(Nc3nc(N)c(C(=O)c4c(Cl)cccc4Cl)s3)c2)C1 (stereo not drawn) [DD(147)] | 38% | 39.6% | 19%
25 | NC(=O)CC[S+]([O-])c1cccc(Nc2nc(N)c(C(=O)c3c(Cl)cccc3Cl)s2)c1 (stereo not drawn) [DD(148)] | 53% | 65.5% | 35%
26 | Nc1nc(Nc2cccc([S+]([O-])CCO)c2)sc1C(=O)c1c(Cl)cccc1Cl (stereo not drawn) [DD(149)] | 55% | 57.7% | 33%
27 | CC(C)CCC[S+]([O-])c1cccc(Nc2nc(N)c(C(=O)c3c(Cl)cccc3Cl)s2)c1 (stereo not drawn) [DD(150)] | 21% | 10.4% | 5.6%
28 | CC(C)CCOC(=O)C[S+]([O-])c1cccc(Nc2nc(N)c(C(=O)c3c(Cl)cccc3Cl)s2)c1 (stereo not drawn) [DD(151)] | 9.2% | 34.3% | 16%
29 | CN(C)CC[S+]([O-])c1cccc(Nc2nc(N)c(C(=O)c3c(Cl)cccc3Cl)s2)c1 (stereo not drawn) [DD(152)] | 28% | 57.3% | 21%
30 | CCOCC[S+]([O-])c1cccc(Nc2nc(N)c(C(=O)c3c(Cl)cccc3Cl)s2)c1 (stereo not drawn) [DD(153)] | 44% | 51.8% | 15%
31 | Nc1nc(Nc2cccc([S+]([O-])CC(O)CO)c2)sc1C(=O)c1c(Cl)cccc1Cl (stereo not drawn) [DD(154)] | 60% | 73.5% | 31%
32 | Nc1nc(Nc2cccc([S+]([O-])Cc3ccncc3)c2)sc1C(=O)c1c(Cl)cccc1Cl (stereo not drawn) [DD(155)] | 35% | 59.6% | 25%
33 | CCC(CC)C[S+]([O-])c1cccc(Nc2nc(N)c(C(=O)c3c(Cl)cccc3Cl)s2)c1 (stereo not drawn) [DD(156)] | 25% | 15.1% | 17%
34 | CC(=O)OCC[S+]([O-])c1cccc(Nc2nc(N)c(C(=O)c3c(Cl)cccc3Cl)s2)c1 (stereo not drawn) [DD(157)] | 42% | 59.7% | 21%
35 | CC(C)OC(=O)CC[S+]([O-])c1cccc(Nc2nc(N)c(C(=O)c3c(Cl)cccc3Cl)s2)c1 (stereo not drawn) [DD(158)] | 27% | 35% | 22%
36 | Nc1nc(Nc2cccc([S+]([O-])CCN3CCOCC3)c2)sc1C(=O)c1c(Cl)cccc1Cl (stereo not drawn) [DD(159)] | 25% | 44% | 36%
37 | CC(C)(CO)C[S+]([O-])c1cccc(Nc2nc(N)c(C(=O)c3c(Cl)cccc3Cl)s2)c1 (stereo not drawn) [DD(160)] | 19% | 49% | 8.1%
